Measured values published in patent US8816079B2, “Amide derivative and use thereof as medicine” (Mitsubishi Tanabe Pharma Corporation, priority 2010, dated 2014).
pIC50: −log10 of the molar value.

Legend:
[1] = test system: proMMP-9 production by human TNFα stimulated THP-1 cell; assay: proMMP-9 production by human TNFα stimulated THP-1 cell; format: cell-based; conditions: THP-1 cells, human TNFα 10 ng/mL, 24 hr; IC50 from 3 points at 10, 100 and 1,000 nmol/L; read-out: proMMP-9 production suppression (IC50)
Experimental: (§1) THP-1 cell (human monocytic leukemia cell line) was adjusted to 1×10^7 cells/mL in a culture medium (10% fetal bovine serum/RPMI1640 medium), and dispensed to a 96 well multiplate. This was equilibrated under the conditions of 37° C./5% CO2, and a culture medium containing human TNFα (final concentration 10 ng/mL) and a test compound was added thereto. After incubation under the conditions of 37° C./5% CO2 for 24 hr, the culture medium was centrifuged and the culture supernatant was collected, which was subjected to the following measurement.
Quantification of proMMP-9 in Culture Supernatant
The proMMP-9 concentration of the collected culture supernatant was quantified using a commercially available measurement reagent (manufactured by GE Healthcare, MMP-9, Human, Biotrak ELISA System).
Calculation of proMMP-9 Suppression Rate
The proMMP-9 suppression rate of the test compound was calculated from the following formula: % suppression=100−((Test−Min)/(Max−Min)×100) wherein Max is proMMP-9 concentration of culture supernatant induced by stimulation with human TNFα, without addition of a test compound (added with solvent alone) Min is proMMP-9 concentration of culture supernatant without addition of a test compound (added with solvent alone) and without stimulation with human TNFα, and Test is proMMP-9 concentration of culture supernatant induced by stimulation with human TNFα when a test compound is added.
Furthermore, the concentration of the test compound necessary for suppressing proMMP-9 production by human TNFα stimulated THP-1 cell by 50% ([…]) was calculated from 3 points of proMMP-9 suppression rate at test compound concentrations of 10, 100 and 1,000 nmol/L.

[2] = test system: rat dinitrobenzene-induced colitis model; assay: large intestine weight increase of rat dinitrobenzene-induced colitis model; format: in vivo; conditions: Wistar rat, 10 mg/kg oral once a day, day 8; normal group 0.215 ± 0.011, pathology group 0.633 ± 0.041
Experimental: A dinitrobenzene solution (30 mg/0.1 mL) was injected into the large intestine of anesthetized rats (Wistar, male, 6-week-old). […] On day 8, the large intestine was isolated from euthanized rats, and the wet weight thereof was measured. The large intestine weight was amended to the weight per 100 g body weight of the rats on day 8.

[3] = test system: rat adjuvant induced arthritis model; assay: hindpaw edema of rat adjuvant induced arthritis model; format: in vivo; conditions: LEW rat, 10 mg/kg oral once a day day 15 to day 20, difference of hindpaw volume day 15 to day 21; disease group (solvent) 0.63 ± 0.13
Experimental: Anesthetized rats (LEW, male, 6-week-old) were immunized with M. Butyricum (5 mg/mL) at a dose of 0.1 mL/body by subcutaneous administration from the tail root. […] […] The amount of hindpaw edema was the difference in the amount between hindpaw volume on day 15 and that on day 21.

[4] = test system: proMMP-2 production by THP-1 cell; assay: hemostatic type proMMP-2 production by THP-1 cell; format: cell-based, human; conditions: THP-1 cells without stimulation, 24 hr, test compound 2 μM
Experimental: as §1, with “containing” for “containing human TNFα (final concentration 10 ng/mL) and”
Quantification of proMMP-2 in Culture Supernatant
The proMMP-2 concentration of the collected culture supernatant was quantified using a commercially available measurement reagent (manufactured by GE Healthcare, MMP-2, Human, Biotrak ELISA System).
Calculation of proMMP-2 Suppression Rate
The proMMP-2 suppression rate of the test compound was calculated from the following formula: % suppress=100−((Test/Cont)×100). wherein Cont is proMMP-2 concentration of culture supernatant without addition of a test compound (added with solvent alone) and Test is proMMP-2 concentration of culture supernatant with addition of a test compound.

[5] = test system: rat monoiodoacetic acid-induced osteoarthritis model; assay: articular joints injury of rat monoiodoacetic acid-induced osteoarthritis model; format: in vivo; conditions: LEW rat, 10 mg/kg oral once a day to day 6, scored on day 7; disease group (solvent) 5.8 ± 0.2
Experimental: Monoiodoacetic acid solution (0.3 mg/25 μL) was injected into the right hindpaw knee joint cavity of anesthetized rats (LEW, male, 7-week-old). A test compound was orally administered once a day from immediately after monoiodoacetic acid injection to day 6 at a dose of 10 mg/kg. On day 7, right hindpaw knee joint was taken from euthanized rats, and fixed with 10% neutral formalin solution. A pathology specimen of knee joint was prepared, stained with Hematoxylin Eosin and Safranine O, and the state of joint cartilage injury was scored under microscopic observation. For articular joint injury scores, changes in each pathological finding in medial condyle of femur and medial condyle of tibia (cartilage surface tuberosity, erosion/ulcer/fibrillation, chondrocyte disorganization/disappearance/hypertrophy, reduction of Safranine staining) were divided into mild, moderate and severe according to the method of Kobayashi et al. (Kobayashi K et al. J. Vet. Med. Sci. 65, 1195 1199 2003), and indicated in the scores of 1, 2 and 3 and totaled. Furthermore, an average of the score of medial condyle of femur and that of medial condyle of tibia was determined and used as an articular joint injury score.

| Structure (SMILES) | pIC50 [1] | other results |
| --- | --- | --- |
| Cc1cnc(N2CCN(C(=O)c3ccc(N(C)S(C)(=O)=O)cc3F)CC2)c(C)c1 [Example 494, N-{4-[4-(3,5-dimethylpyridin-2-yl)piperazine-1-carbonyl]-3-fluorophenyl}-N-methylmethanesulfonamide] | 6.99 | – |
| Cc1ccc(N2CCN(C(=O)c3ccc(N4CCCS4(=O)=O)cc3S(C)(=O)=O)CC2)c(C)c1 [Example 11, [4-(2,4-dimethylphenyl)piperazin-1-yl][4-(1,1-dioxo-1λ^6-isothiazolidin-2-yl)-2-methanesulfonylphenyl]methanone] | – | large intestine weight (g/100 g body weight) [2]: 0.509 ± 0.051 g/100 g body weight; hindpaw edema volume of compound administration group [3]: 0.24 ± 0.10 |
| CC(=O)Nc1ccc(C(=O)N2CCN(c3ccc(C)cc3C)CC2)c(S(C)(=O)=O)c1 [Example 474, N-{4-[4-(2,4-dimethylphenyl)piperazine-1-carbonyl]-3-methanesulfonylphenyl}acetamide] | 7.44 | – |
| Cc1cc(C)c(N2CCN(C(=O)c3ccc(N4C(=O)NC(=O)C4C)nc3)CC2)nc1C (centres unmarked) [Example 549, 5-methyl-1-{5-[4-(3,5,6-trimethylpyridin-2-yl)piperazine-1-carbonyl]pyridin-2-yl}imidazolidine-2,4-dione] | 8.15 | – |
| Cc1cc(C2CC2)cnc1N1CCN(C(=O)c2ccc(CN3CCCS3(=O)=O)cc2)CC1 [Example 245, [4-(5-cyclopropyl-3-methylpyridin-2-yl)piperazin-1-yl][4-(1,1-dioxo-1λ^6-isothiazolidin-2-ylmethyl)phenyl]methanone] | 7.14 | – |

Continued, in another order:

| pIC50 [1] | Structure (SMILES) | other results |
| --- | --- | --- |
| 7.39 | Cc1cc(C2CC2)cnc1N1CCN(C(=O)c2cnc(N3C(=O)CCC3C)cn2)CC1 (centres unmarked) [Example 687, 1-{5-[4-(5-cyclopropyl-3-methylpyridin-2-yl)piperazine-1-carbonyl]pyrazin-2-yl}-5-methylpyrrolidin-2-one] | – |
| 7.36 | Cc1cnc(N2CCN(C(=O)c3ccc(N4CCCS4(=O)=O)cc3F)CC2)c(C)c1 [Example 130, [4-(3,5-dimethylpyridin-2-yl)piperazin-1-yl][4-(1,1-dioxo-1λ^6-isothiazolidin-2-yl)-2-fluorophenyl]methanone] | MMP-2 production suppression (% suppression, 2 μM) [4]: 8.0% |
| 7.12 | Cc1cnc(N2CCN(C(=O)c3ccc(N4CCCC4=O)cc3F)CC2)c(C)c1 [Example 282, 1-{4-[4-(3,5-dimethylpyridin-2-yl)piperazine-1-carbonyl]-3-fluorophenyl}pyrrolidin-2-one] | – |
| 8.00 | Cc1cnc(N2CCN(C(=O)c3ccc(N4CCNC4=O)cc3F)CC2)c(C)c1 [Example 416, 1-{4-[4-(3,5-dimethylpyridin-2-yl)piperazine-1-carbonyl]-3-fluorophenyl}imidazolidin-2-one] | – |
| 7.09 | Cc1cnc(N2CCN(C(=O)c3ccc(N4CCCS4(=O)=O)cc3C)CC2)c(C)c1 [Example 154, [4-(3,5-Dimethylpyridin-2-yl)piperazin-1-yl][4-(1,1-dioxo-1λ^6-isothiazolidin-2-yl)-2-methylphenyl]methanone] | articular joint injury score of compound administration group [5]: 4.6 ± 0.4; MMP-2 production suppression (% suppression, 2 μM) [4]: 13.0% |
